In ChEMBL document CHEMBL1123023, “Syntheses and differentiating action of vitamin D endoperoxides. Singlet oxygen adducts of vitamin D derivatives in human myeloid leukemia cells (HL-60)” (1985):

Experiments:
HL-60 = experiment: Evaluated for its ability to induce phagocytosis in human myeloid leukemia cells (HL-60); assay type: functional; parameters: unit not given here
[1] = target: T1, Vitamin D3 receptor (Homo sapiens) (UniProt P11473)
T1 sequence (whole entry): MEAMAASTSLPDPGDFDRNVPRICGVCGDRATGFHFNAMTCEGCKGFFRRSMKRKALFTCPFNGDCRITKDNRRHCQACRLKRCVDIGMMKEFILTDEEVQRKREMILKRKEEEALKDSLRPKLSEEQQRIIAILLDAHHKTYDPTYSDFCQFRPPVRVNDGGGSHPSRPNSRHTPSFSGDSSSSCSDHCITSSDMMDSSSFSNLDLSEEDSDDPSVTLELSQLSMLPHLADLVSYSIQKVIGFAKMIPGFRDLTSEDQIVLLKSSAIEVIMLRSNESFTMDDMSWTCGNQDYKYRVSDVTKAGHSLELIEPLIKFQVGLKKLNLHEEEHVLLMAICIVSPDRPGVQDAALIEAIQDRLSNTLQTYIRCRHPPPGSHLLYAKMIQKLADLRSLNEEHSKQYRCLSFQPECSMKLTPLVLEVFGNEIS
Description: Evaluated for its binding affinity towards cytosol receptor in human myeloid leukemia cells (HL-60), by using 1-alpha,25-(OH)2D3 as radioligand

SMILES | Phagocytosis (HL-60) | Binding activity [1]
C[C@H](CCCC(C)(C)O)[C@H]1CC[C@H]2/C(=C/[C@@H]3OOCC4=C3C[C@@H](O)C[C@@H]4O)CCC[C@]12C | 200 | 800
CC(C)CCC[C@@H](C)[C@H]1CC[C@H]2/C(=C/[C@@H]3OOCC4=C3C[C@@H](O)C[C@@H]4O)CCC[C@]12C | >1000 | > 10000
C=C1CC[C@H](O)C/C1=C/C=C1\CCC[C@]2(C)[C@@H]([C@H](C)CCC(F)(F)C(C)(C)O)CC[C@@H]12 | 200 | 1000
C=C1/C(=C\C=C2/CCC[C@]3(C)[C@@H]([C@H](C)CC[C@@H](O)C(C)C)CC[C@@H]23)C[C@@H](O)C[C@@H]1O [TACALCITOL] | 1 | 1
C[C@H](CCCC(C)(C)O)[C@H]1CC[C@H]2/C(=C/[C@H]3OOCC4=C3C[C@@H](O)CC4)CCC[C@]12C | 120 | 3000
CC(C)CCC[C@@H](C)[C@H]1CC[C@H]2/C(=C/[C@H]3OOCC4=C3C[C@@H](O)C[C@@H]4O)CCC[C@]12C | >1000 | > 10000
C=C1CC[C@H](O)C/C1=C/C=C1\CCC[C@]2(C)[C@@H]([C@H](C)CCCC(C)(C)O)CC[C@@H]12 [CALCIFEDIOL ANHYDROUS] | 320 | 600
C[C@H](CCCC(O)(C(F)(F)F)C(F)(F)F)[C@H]1CC[C@H]2/C(=C/[C@@H]3OOCC4=C3C[C@@H](O)CC4)CCC[C@]12C.C[C@H](CCCC(O)(C(F)(F)F)C(F)(F)F)[C@H]1CC[C@H]2/C(=C/[C@H]3OOCC4=C3C[C@@H](O)CC4)CCC[C@]12C | 30 | 1500
C[C@H](CCCC(C)(C)O)[C@H]1CC[C@H]2/C(=C/[C@H]3OOCC4=C3C[C@@H](O)C[C@@H]4O)CCC[C@]12C | 130 | 800
C=C1/C(=C\C=C2/CCC[C@]3(C)[C@@H]([C@H](C)CCCC(C)(C)O)CC[C@@H]23)C[C@@H](O)C[C@@H]1O [CALCITRIOL] | 1 | –
C=C1CC[C@H](O)C/C1=C/C=C1\CCC[C@]2(C)[C@@H]([C@H](C)CCCC(O)(C(F)(F)F)C(F)(F)F)CC[C@@H]12 | 200 | 50
C=C1/C(=C\C=C2/CCC[C@]3(C)[C@@H]([C@H](C)CCCC(C)C)CC[C@@H]23)C[C@@H](O)C[C@@H]1O [ALFACALCIDOL] | 320 | 800
C[C@H](CCC(F)(F)C(C)(C)O)[C@H]1CC[C@H]2/C(=C/[C@@H]3OOCC4=C3C[C@@H](O)CC4)CCC[C@]12C.C[C@H](CCC(F)(F)C(C)(C)O)[C@H]1CC[C@H]2/C(=C/[C@H]3OOCC4=C3C[C@@H](O)CC4)CCC[C@]12C | 45 | 1000
CC(C)[C@H](O)CC[C@@H](C)[C@H]1CC[C@H]2/C(=C/[C@H]3OOCC4=C3C[C@@H](O)C[C@@H]4O)CCC[C@]12C | 150 | 800
CC(C)[C@H](O)CC[C@@H](C)[C@H]1CC[C@H]2/C(=C/[C@@H]3OOCC4=C3C[C@@H](O)C[C@@H]4O)CCC[C@]12C | 200 | 800
C[C@H](CCCC(C)(C)O)[C@H]1CC[C@H]2/C(=C/[C@@H]3OOCC4=C3C[C@@H](O)CC4)CCC[C@]12C | 130 | 3000
